Assay results: US20150212068A1, “Cholyl-L-Lysyl-Fluorescein Assay” (Novassay SA, priority 2012, published 2015)

Experiments:
[1] = Storage stability of CLF in human plasma at −70° C. over 4 weeks (Test 4), HPLC-MS/MS; assay type: in vitro ADME; settings: for CLF remaining / CLF concentration: (D) storage in plasma at −70° C. per title (section head prints 37° C.); for CLF remaining: vs To; for CLF concentration: 100 ng/ml, mean ± SEM (n = 2)
Method: A working solution of CLF was prepared at 10 μg/ml by diluting the compound in methanol (100%).
At To and 4 weeks, 72 hours and 24 hours before To, 4 μl of the working solution of CLF were added to 400 μl of human plasma. The final concentration of CLF was of 100 ng/ml. Samples were divided in 2 equal fractions of 200 μl and stored at −70° C. until further analysis.
An internal standard (IS), 5-([4,6-Dichlorotriazin-2-yl]amino)fluorescein hydrochloride, was added to each plasma sample (calibrators, QC, zero and test samples) in order to monitor the extraction. Thus, a stock solution of IS at 100 μg/ml in acetonitrile was 50-fold diluted in acetonitrile in order to obtain a final concentration of 2 μg/ml. Then, 200 μl of this solution were added to each plasma sample in order to precipitate the proteins. Samples were vortexed/mixed and centrifuged 5 min at 20,000 g (4° C.). After centrifugation, the clear supernatant (around 250 μl) was transferred into 1.2 ml HPLC glass vials and sealed. Samples were placed into the refrigerated autosampler and 20 μl were injected into the HPLC-MS/MS system. Test samples were injected twice.
HPLC separation was operated with a mixture of water and acetonitrile containing 0.1% of formic acid and the reversed phase mode was selected. The injected volume of sample was 20 μl and the “full loop” mode was applied. The temperature of the analytical column was kept at 30° C.
CLF and its IS were separated on an Acclaim 120 C18 column (5 μm, 2.1×100 mm, Dionex) by elution with a linear gradient of acetonitrile in water as described in Table 6.
An ion trap mass spectrometer equipped with an ESI interface was operated in the positive ionization mode. For each compound, the most abundant ion formed in MS was selected for MS/MS fragmentations. In order to increase the sensitivity and the specificity of the method, the MRM mode was selected. The most specific daughter ions formed in MS/MS were used for quantification.

[2] = Stability of CLF-spiked serum samples after 12 day storage at 2-8° C., CLF ELISA; assay type: in vitro ADME, human
Method: (§1) These conditions were used for all assays described in Phase 2a (above) and Phase 2b (below). See Appendix B and C for buffer and conjugate formulations respectively: • Add 25 μl/well of sample or standard (0-1000 ng/ml CLF in Buffer #24) to the wells of a streptavidin-coated microtitre plate (NovAssay, F2SAC). • Add 100 μl/well of fluorescein-biotin (Sigma B9431) at 20 ng/ml in Buffer #24+0.2% w/v ANS (Sigma 10417). • Add 100 μl/well of anti-fluorescein HRP (NovAssay, DV047/17-3) at 100 ng/ml in Buffer #24. • Incubate the plate for 30 minutes at room temperature. • Wash the plate 3 times with 800 μl/well Buffer #29 and tap the plate dry. • Add 100 μl/well of SureBlue Reserve TMB Substrate (KPL) and incubate the plate for 10 minutes at room temperature. • Stop the substrate reaction by adding 100 μl/well of 1M HCl and read the absorbance at 450 nm wavelength (ThermoFisher Scientific, Multiskan FC).
Sample drift was assessed by using two sera spiked with CLF to 4 levels (62.5, 125, 250 and 500 ng/ml). Each of the samples were added to streptavidin coated wells (in duplicate) soon after the addition of the standards (time 0, in columns 5&6)); after 5 minutes the samples were added to columns 7&8; “5 minute” time point” 5 minutes later in columns 9&10 (“10 minute time point” and 5 minutes later in columns 11&12 (“15 minute time point”). The samples used were prepared 12 days prior to the experiment and were kept at 2-8° C. In addition, some other serum samples that were spiked with CLF at the same time (12 days prior to the assay) were also measured in order to determine the stability of CLF (note: The data obtained are the results of 2 variables (instability of CLF and the recovery) and thus represent a “worst case scenario”.
The level of instability (after 12 day storage at 2-8° C.) was calculated by comparing the results obtained with the expected results.

[3] = Effect of light exposure on CLF-spiked serum, 48 hrs at room temperature, CLF ELISA; assay type: physicochemical, human; settings: for % difference (light from dark) / observed Light / observed dark: serum pool; for % difference (light from dark) / observed dark: 48 hrs at RT; for observed Light: 48 hrs at RT near light source; for observed dark: covered with aluminium foil
Method: as §1
For the study of the effect of light, 3 pools of serum were spiked with CLF at 31.25, 125 and 500 ng/ml. One aliquot of each pool was put near a light source (fluorescent bulb 58 watts, at a distance of 85 cm). The “dark” sample was covered with aluminium foil. The samples were at RT (˜18-22° C.). Storage time was 48 hrs.

[4] = 12 day storage at 2-8° C., pool1, Expected 125 ng/ml
[5] = 12 day storage at 2-8° C., pool2, Expected 31.25 ng/ml
[6] = 12 day storage at 2-8° C., pool3, Expected 500 ng/ml
[7] = 12 day storage at 2-8° C., sample 5876, Expected 1000 ng/ml
[8] = 12 day storage at 2-8° C., sample 5881, Expected 1000 ng/ml
[9] = 12 day storage at 2-8° C., sample 5883, Expected 500 ng/ml
[10] = 12 day storage at 2-8° C., sample 5883, Expected 1000 ng/ml
[11] = 12 day storage at 2-8° C., sample 5884, Expected 62.5 ng/ml
[12] = 12 day storage at 2-8° C., sample 5884, Expected 125 ng/ml
[13] = 12 day storage at 2-8° C., sample 5884, Expected 250 ng/ml
[14] = 12 day storage at 2-8° C., sample 5884, Expected 500 ng/ml
[15] = 12 day storage at 2-8° C., sample 5885, Expected 62.5 ng/ml
[16] = 12 day storage at 2-8° C., sample 5885, Expected 125 ng/ml
[17] = 12 day storage at 2-8° C., sample 5885, Expected 250 ng/ml
[18] = 12 day storage at 2-8° C., sample 5885, Expected 500 ng/ml
[19] = 12 day storage at 2-8° C., sample 5885, Expected 1000 ng/ml

Structure (SMILES): CC(CCC(=O)NC(CCCCNC(=S)Nc1ccc(-c2c3ccc(=O)cc-3oc3cc(O)ccc23)c(C(=O)O)c1)C(=O)O)C1CCC2C3C(O)CC4CC(O)CCC4(C)C3CC(O)C12C [CLF, Cholyl-L-Lysyl-Fluorescein]
- CLF remaining ([1]; 0.0 days): 100.0%
- CLF concentration ([1]; 0.0 days): 101.2 ± 5.8 ng/mL
- CLF concentration ([1]; 1.0 days): 105.5 ± 2.5 ng/mL
- CLF concentration ([1]; 3.0 days): 104.7 ± 6.9 ng/mL
- CLF concentration ([1]; 28.0 days): 96.2 ± 1.4 ng/mL
- CLF remaining ([1]; 1.0 days): 104.3%
- CLF remaining ([1]; 3.0 days): 103.5%
- CLF remaining ([1]; 28.0 days (4 weeks)): 95.0%
- plasmatic concentrations measured ([1]; plasma spiked with 100 ng/ml, stored at −70° C., 0-4 weeks): 96.2 to 105.5 ng/mL
- CLF stability in plasma on storage ([1]; up to 4 weeks at −70° C.): stable
- time over which CLF stability in human plasma was confirmed ([1]; −70° C.): at least 4 weeks
- Difference, mean ([2]; 12 day storage at 2-8° C., mean of all samples): −27%
- Difference [2, 4]: −39%
- observed [2, 4]: 76 ng/mL
- Difference [2, 5]: −14%
- observed [2, 5]: 27 ng/mL
- Difference [2, 6]: −27%
- observed [2, 6]: 365 ng/mL
- Difference [2, 7]: −24%
- observed [2, 7]: 756 ng/mL
- Difference [2, 8]: −18%
- observed [2, 8]: 820 ng/mL
- Difference [2, 9]: −25%
- observed [2, 9]: 375 ng/mL
- Difference [2, 10]: −10%
- observed [2, 10]: 903 ng/mL
- Difference [2, 11]: −29%
- observed [2, 11]: 44 ng/mL
- Difference [2, 12]: −36%
- observed [2, 12]: 80 ng/mL
- Difference [2, 13]: −39%
- observed [2, 13]: 153 ng/mL
- Difference [2, 14]: −32%
- observed [2, 14]: 340 ng/mL
- Difference [2, 15]: −27%
- observed [2, 15]: 46 ng/mL
- Difference [2, 16]: −33%
- observed [2, 16]: 84 ng/mL
- Difference [2, 17]: −29%
- observed [2, 17]: 177 ng/mL
- Difference [2, 18]: −24%
- observed [2, 18]: 379 ng/mL
- Difference [2, 19]: −20%
- observed [2, 19]: 804 ng/mL
- reduction in measured CLF (mean) ([2]; samples kept at 2-8 C. for 12 days): 27%) occurs when samples are kept
- reduction in measured CLF (mean) ([2]; spiked serum samples kept at 2-8° C. for 12 days, vs expected): 27%
- CLF immunoreactivity lost ([3]; exposed to light, after 48 hrs): long period, with up to 25% of CLF
- % difference (light from dark) ([3]; expected 31.25 ng/ml): 0%
- observed Light ([3]; expected 31.25 ng/ml): 37 ng/mL
- observed dark ([3]; expected 31.25 ng/ml): 37 ng/mL
- % difference (light from dark) ([3]; expected 125 ng/ml): −25%
- observed Light ([3]; expected 125 ng/ml): 107 ng/mL
- observed dark ([3]; expected 125 ng/ml): 143 ng/mL
- % difference (light from dark) ([3]; expected 500 ng/ml): −15%
- observed Light ([3]; expected 500 ng/ml): 423 ng/mL
- observed dark ([3]; expected 500 ng/ml): 495 ng/mL
- CLF immunoreactivity lost on exposure to light ([3]; spiked serum, 48 hrs, room temperature, fluorescent bulb vs dark): up to 25%
